Results from PMC12396409, “Screening and hit evaluation of a microbial metabolite library against the pathogenic Plasmodium falciparum and Toxoplasma gondii parasites” (International Journal for Parasitology: Drugs and Drug …, 2025).
Read-outs that look alike come from different tables or passages of the source. Where a SMILES comes first, the peptide text is derived from it. Bridges are numbered along the chain shown (N, C = ends). [ ]: non-standard residue; d: D form. The star is where a group is joined. ξ: configuration not given here. ξNMePhe(4-NMe2) = CNC(Cc1ccc(N(C)C)cc1)C(=O)O; Picolinoyl(3-OH) = O=C(c1ncccc1O)*; ξPip(4-oxo) = O=C1CCNC(C(=O)O)C1; Phg = N[CH](C(=O)O)c1ccccc1; Abu = CC[CH](N)C(=O)O

Key:
[1] = tested on: P. falciparum 3D7 parasites; test: P. falciparum growth inhibition assay, 1-cycle (72 h treatment), SYBR DNA staining (library screen at 2 μg/mL and dose-response); assay type: cell-based, Plasmodium falciparum; settings: for activity at 2 µg/mL: Plasmodium falciparum
[2] = tested on: P. falciparum 3D7 parasites; test: P. falciparum growth inhibition assay, 2-cycle (120 h treatment), delayed-death screen and dose-response; assay type: cell-based, Plasmodium falciparum; settings: for activity at 2 µg/mL: Plasmodium falciparum
[3] = tested on: T. gondii RH strain (RH-Tub-eYFP) tachyzoites; test: microbe, parasite or virus in culture; assay type: cell-based, Toxoplasma gondii; settings: 72 h, 72 h; for percent parasite growth at 2 µg/mL: Toxoplasma gondii
[4] = 3D7, 72 h, library screen at 2 μg/mL, 72 h, % growth, replicate 1, read-out: Pf_72h_%Growth_Rep1
[5] = 3D7, 72 h, library screen at 2 μg/mL, 72 h, % growth, replicate 2, read-out: Pf_72h_%Growth_Rep2
[6] = 3D7, 120 h, library screen at 2 μg/mL, 120 h, % growth, replicate 1, read-out: Pf_120h_%Growth_Rep1
[7] = 3D7, 120 h, library screen at 2 μg/mL, 120 h, % growth, replicate 2, read-out: Pf_120h_%Growth_Rep2
[8] = library screen at 2 μg/mL, % growth, replicate 1, read-out: Tg_72h_%Growth_Rep1
[9] = library screen at 2 μg/mL, % growth, replicate 2, read-out: Tg_72h_%Growth_Rep2
[10] = 3D7, 72 h, P. falciparum, 72 h, screen at 2 μg/mL, replicate 1, read-out: Pf_72h_%Growth_Rep1
[11] = 3D7, 72 h, P. falciparum, 72 h, screen at 2 μg/mL, replicate 2, read-out: Pf_72h_%Growth_Rep2
[12] = 3D7, 120 h, P. falciparum, 120 h, screen at 2 μg/mL, replicate 1, read-out: Pf_120h_%Growth_Rep1
[13] = 3D7, 120 h, P. falciparum, 120 h, screen at 2 μg/mL, replicate 2, read-out: Pf_120h_%Growth_Rep2
[14] = T. gondii, screen at 2 μg/mL, replicate 1, read-out: Tg_72h_%Growth_Rep1
[15] = T. gondii, screen at 2 μg/mL, replicate 2, read-out: Tg_72h_%Growth_Rep2
[16] = P. falciparum, 72 h, screen at 2 μg/mL, replicate 1
[17] = P. falciparum, 72 h, screen at 2 μg/mL, replicate 2
[18] = P. falciparum, 120 h, screen at 2 μg/mL, replicate 1
[19] = P. falciparum, 120 h, screen at 2 μg/mL, replicate 2
[20] = T. gondii, screen at 2 μg/mL, replicate 1
[21] = T. gondii, screen at 2 μg/mL, replicate 2

C[C@@H]1[C@H](O)[C@@H](C)/C=C/C=C/C=C/C=C/C=C/C=C/C=C/[C@H](O[C@@H]2O[C@H](C)[C@@H](O)[C@H](N)[C@@H]2O)C[C@@H]2O[C@](O)(C[C@@H](O)C[C@@H](O)[C@H](O)CC[C@@H](O)C[C@@H](O)CC(=O)O[C@H]1C)C[C@H](O)[C@H]2C(=O)O [Amphotericin B]
activity at 2 µg/mL [1, 4]: 84.3%
activity at 2 µg/mL [1, 5]: 90.2%
activity at 2 µg/mL [2, 6]: 77%
activity at 2 µg/mL [2, 7]: 69.3%
percent parasite growth at 2 µg/mL [3, 8]: 101%
percent parasite growth at 2 µg/mL [3, 9]: 86.5%

CC=C1CN(C)C2Cc3c([nH]c4ccccc34)C(c3cc4[nH]c5c(c4cc3OC)CCN3CC4CC(CC)C3C5(C(=O)OC)C4)CC1C2C(=O)OC (stereo not drawn) [Voacamine]
activity at 2 µg/mL [1, 10]: 56.2%
activity at 2 µg/mL [1, 11]: 62%
activity at 2 µg/mL [2, 12]: 106%
activity at 2 µg/mL [2, 13]: 45.2%
percent parasite growth at 2 µg/mL [3, 14]: 97%
percent parasite growth at 2 µg/mL [3, 15]: 101%

CC1=C[C@H]2O[C@@H]3[C@H](O)[C@@H](O)[C@](C)([C@@]2(CO)[C@H](O)C1=O)[C@]31CO1 [BIA-N1920]
Pf_72h_%Growth_Rep1 ([1]; P. falciparum 3D7, 72 h, parasite screen at 2 μg/mL, % growth, replicate 1): 4.51%
Pf_72h_%Growth_Rep2 ([1]; P. falciparum 3D7, 72 h, parasite screen at 2 μg/mL, % growth, replicate 2): -2.70%
Pf_120h_%Growth_Rep1 ([2]; P. falciparum 3D7, 120 h, parasite screen at 2 μg/mL, % growth, replicate 1): 18.13%
Pf_120h_%Growth_Rep2 ([2]; P. falciparum 3D7, 120 h, parasite screen at 2 μg/mL, % growth, replicate 2): 5.74%
Tg_72h_%Growth_Rep1 ([3]; T. gondii, parasite screen at 2 μg/mL, % growth, replicate 1): 0.21%
Tg_72h_%Growth_Rep2 ([3]; T. gondii, parasite screen at 2 μg/mL, % growth, replicate 2): 0.91%

COC[C@@H](C[C@H]1O[C@@](O)([C@H](O)[C@@H]2C[C@H](OC)[C@@H](O)CC/C=C(C)/C=C/[C@@H](O[C@@H]3O[C@@H](C)[C@H](OC)[C@@H](O)[C@@H]3O)[C@H](C)/C=C(C)/C=C(C)/C=C(\C)C(=O)O2)[C@H](C)[C@@H](O)[C@H]1C)OC1C[C@](C)(O)[C@@H](O[C@H]2C[C@@H](OC)[C@H](O)[C@@H](C)O2)[C@H](C)O1 (stereo partly drawn) [Apoptolidin]
activity at 2 µg/mL [1, 4]: 59%
activity at 2 µg/mL [1, 5]: 49.8%
activity at 2 µg/mL [2, 6]: 34.5%
activity at 2 µg/mL [2, 7]: 23.8%
percent parasite growth at 2 µg/mL [3, 8]: 76.4%
percent parasite growth at 2 µg/mL [3, 9]: 73%

Cc1cc(O)c(C=O)c2c1C(=O)Oc1c(COC(=O)/C=C/C(=O)O)c(O)c(C(=O)O)c(C)c1O2 [Fumarprotocetraric acid]
activity at 2 µg/mL ([1]; 3D7, library screen at 2 μg/mL, 72 h, % growth, replicate 1, read-out: Pf_72h_%Growth_Rep1): 84.6%
activity at 2 µg/mL ([1]; 3D7, library screen at 2 μg/mL, 72 h, % growth, replicate 2, read-out: Pf_72h_%Growth_Rep2): 90.2%
activity at 2 µg/mL ([2]; 3D7, library screen at 2 μg/mL, 120 h, % growth, replicate 1, read-out: Pf_120h_%Growth_Rep1): 102%
activity at 2 µg/mL ([2]; 3D7, library screen at 2 μg/mL, 120 h, % growth, replicate 2, read-out: Pf_120h_%Growth_Rep2): 100%
percent parasite growth at 2 µg/mL [3, 8]: 126%
percent parasite growth at 2 µg/mL [3, 9]: 103%

CCC1NC(=O)C(NC(=O)c2ncccc2O)C(C)OC(=O)C(c2ccccc2)NC(=O)C2CC(=O)CCN2C(=O)C(Cc2ccc(N(C)C)cc2)N(C)C(=O)C2CCCN2C1=O (stereo not drawn) [Virginiamycin B] ({Picolinoyl(3-OH)}-T[Abu]P[ξNMePhe(4-NMe2)][ξPip(4-oxo)][Phg]; ester 1-C; configuration not given here)
Pf_72h_%Growth_Rep1 [1, 16]: 73.90%
Pf_72h_%Growth_Rep2 [1, 17]: 82.34%
Pf_120h_%Growth_Rep1 [2, 18]: 152.31%
Pf_120h_%Growth_Rep2 [2, 19]: 75.63%
Tg_72h_%Growth_Rep1 [3, 20]: 93.06%
Tg_72h_%Growth_Rep2 [3, 21]: 114.46%

CCC(=O)Nc1c2sscc-2n(C)c1=O [Aureothricin]
Pf_72h_%Growth_Rep1 ([1]; library screen at 2 μg/mL, 72 h, % growth, replicate 1): 7.64%
Pf_72h_%Growth_Rep2 ([1]; library screen at 2 μg/mL, 72 h, % growth, replicate 2): 5.69%
Pf_120h_%Growth_Rep1 ([2]; library screen at 2 μg/mL, 120 h, % growth, replicate 1): 11.34%
Pf_120h_%Growth_Rep2 ([2]; library screen at 2 μg/mL, 120 h, % growth, replicate 2): -0.06%
Tg_72h_%Growth_Rep1 ([3]; library screen at 2 μg/mL, % growth, replicate 1): 1.55%
Tg_72h_%Growth_Rep2 ([3]; library screen at 2 μg/mL, % growth, replicate 2): 1.43%

CCC(=O)N[C@H](COC(C)=O)[C@H](O)c1ccc([N+](=O)[O-])cc1 [Corynecin V]
Pf_72h_%Growth_Rep1 [1, 16]: 87.31%
Pf_72h_%Growth_Rep2 [1, 17]: 90.66%
Pf_120h_%Growth_Rep1 [2, 18]: 81.24%
Pf_120h_%Growth_Rep2 [2, 19]: 97.66%
Tg_72h_%Growth_Rep1 [3, 20]: 157.61%
Tg_72h_%Growth_Rep2 [3, 21]: 102.11%

CNc1ccc2oc(C[C@H]3O[C@@]4(CC[C@H]3C)O[C@H]([C@H](C)C(=O)c3ccc[nH]3)[C@H](C)C[C@H]4C)nc2c1C(=O)O [Calcimycin]
activity at 2 µg/mL [1, 10]: 13.1%
activity at 2 µg/mL [1, 11]: 6.23%
activity at 2 µg/mL [2, 12]: 11.6%
activity at 2 µg/mL [2, 13]: 3.04%
percent parasite growth at 2 µg/mL [3, 14]: 1.82%
percent parasite growth at 2 µg/mL [3, 15]: 1.52%

O=C(O)c1nccc2c1[nH]c1ccccc12 [Carboline 1-carboxylic acid, β-]
Pf_72h_%Growth_Rep1 [1, 16]: 89.67%
Pf_72h_%Growth_Rep2 [1, 17]: 90.01%
Pf_120h_%Growth_Rep1 [2, 18]: 166.51%
Pf_120h_%Growth_Rep2 [2, 19]: 96.73%
Tg_72h_%Growth_Rep1 [3, 20]: 4.34%
Tg_72h_%Growth_Rep2 [3, 21]: 7.03%
